A short description of series [1]: Relative cell viability in HCHT screening (propidium iodide negative nuclei count). Particulars: human; for GI50: HeLa, removal, tinc 0.5 h with 1 (10 µM), read-out: GI50, concentration causing 50% cell growth inhibition. In kind it is cell-based. The procedure:
(§1) With COCs 1 and 2 as cell-penetrating reporters, a fully automated, fluorescent microscopy image-based high-content high-throughput (HCHT)[19] inhibitor screening assay was developed. HeLa cells in multiwell plates are incubated with a reporter at constant and inhibitors at varying concentrations and incubation times. Hindered reporter uptake then causes decrease of fluorescence inside of cells (Fig. 3a). Automated data analysis[19] was established to extract average fluorescence intensity per cell and, at the same time, cell viability from propidium iodide negative nuclei count (Fig. 3 and S3–S6 ^†). Standard assay conditions consisted of pre-incubation of HeLa cells with inhibitors for different periods of time, followed by the removal of inhibitors and the addition of reporters, thus excluding possible interactions between the two in the extracellular environment. In alternative co-incubation conditions, inhibitors were not removed before the addition of reporters to allow for eventual interactions between the two.
To be able to extract the fluorescent integrated intensity information (sum of the intensities of all the pixels included in the mask) from the green channel for live cell only, the image analysis pipeline contains several steps of cell filtering and selection:
1) Firstly, PI is used to stain any remaining nuclei of dead cell. In the analysis pipeline, all the “dead” nuclei are detected based on their fluorescent intensity in the PI channel (Figure […]
Fig. S4 (A) PI positive nuclei mask (fluorescent intensity threshold of 1000). (B) Overlap image of dead nuclei mask and original all cell body mask. (C) Resulting cell mask after removing any cell marked by a dead nucleus, new mask is called “Live Cell”. Scale bar: 50 μm.
2) Elimination of non-full cells from the border of the image is performed, to avoid inaccurate fluorescent integrated intensity quantification (fluorescent integrated intensity = sum of intensity of all the pixel of the object) (Figure S5).
(1 picture or pasted object on this page, not shown here)
4.3. HCHT Inhibitor Screening with ETP as Reporter […]
Relative cell viability (RV) for each condition in the presence of inhibitors were calculated using the count value of living cells by dividing the count value of living cells with addition of reporter 1, Hoechst 33342 and PI, for each set of experiments. Duplicates were performed for each condition. The resulting dependence of the relative cell viability (RVrel) to the concentration of inhibitors (cinhibitor) was plotted and fitted with Equation (S2) to retrieve the concentration causing 50% cell growth inhibition (GI50) value and the Hill coefficient (n).
RVrel = 1 / (1 + (GI50 / cinhibitor)n) (S2)
Note: Reporter 1 were not toxic for 1 h at 10 μM.S2 Also in this study, the count value of living cells with addition of reporter 1, Hoechst 33342 and PI is always similar to that of living cells with only addition of Hoechst 33342 and PI.
Relative cell viability (RV) for each condition with inhibitors were calculated using the count value of living cells by dividing the count value of living cells with addition of reporter 2, Hoechst 33342 and PI, for each set of experiments. Duplicates were performed for each condition. The resulting dependence of the relative cell viability (RVrel) to the concentration of inhibitors (cinhibitor) was plotted and fitted with Equation (S2) to retrieve the concentration causing 50% cell growth inhibition (GI50) value and the Hill coefficient (n).
Note: Reporter 2 were not toxic for 24 h at 10 μM.S3 Also in this study, the count value of living cells with addition of reporter 2, Hoechst 33342 and PI is always similar to that of living cells with only addition of Hoechst 33342 and PI.
4.4.1. Screening with Disulfides as Inhibitors
4.4.1.1. Screening with ETP as Inhibitors
Fig. S35 Automatically analyzed HCHT data showing fluorescence intensity (filled symbols) and relative viability (empty symbols) of HeLa cells after pre-incubation with 3 for 1 h (blue […]

Series [2] concerns cellular uptake of 1 in HeLa Kyoto cells. The series is described as follows: cells. Format: cell-based. Particulars: HeLa; for minimal effective concentration / IC50: HeLa Kyoto, removal, tinc 0.5 h with 1 (10 µM); for minimal effective concentration: read-out: MIC, inhibition of cellular uptake of 1; for IC50: read-out: IC50, inhibition of cellular uptake of 1. How it is done: as §1
4. High-Content High-Throughput (HCHT) Inhibitor Screening
4.1. General Procedure for HCHT Inhibitor Screening
4.1.1. Pre-Incubation of Inhibitors
HeLa Kyoto cells were seeded at 1.2 ×10^4 cells/well in FluoroBrite DMEM + 10% FBS on μ-Plate 96-well Black ibiTreat sterile and kept at 37 °C with 5% CO2 overnight. Next day, serial dilutions of the inhibitors in PBS (10x final concentration), reporter 1 or 2 (100 μM in PBS) and a solution of Hoechst 33342 (100 μg/mL) and PI (10 μg/mL) in PBS were prepared freshly in a 96-well V-bottom plate. Then, cells were washed with PBS ([…]) and the media was exchanged to FluoroBrite DMEM (4 x 150 μL/well) using a plate washer (Biotek EL406®), keeping always a final volume of 135 μL/well. The inhibitor solutions from the V-bottom plate were added to the cells (15 μL/well, 10x final concentration in PBS) using an electronic multichannel pipettes to reach a final volume of 150 μL/well. Cells were incubated for the time of interest (for details of each inhibitors, see Section 4.3 and 4.4) at 37 °C with 5%
CO2. After this, cells were washed again using the plate washer and reporter solution 1 or 2 from the V-bottom plate was added (15 μL/well) using an electronic multichannel pipettes to reach a final volume of 150 μL/well and a final concentration of 10 μM, except for the control wells, where only PBS was added (15 μL/well). After 30 min of incubation at 37 °C with 5% CO2, the plate was washed again using the plate washer. Then, the solution of Hoechst 33342 and PI from V-bottom plate was added (15 μL/well) using an electronic multichannel pipettes to reach a final volume of 150 μL/well. After 15 min of incubation at 37 °C with 5% CO2, the plate was washed one last time and the cells were kept in clean FluoroBrite DMEM. During imaging, samples were kept at 37 °C with 5% CO2 in the microscope.
4.1.2. Co-Incubation of Inhibitors and Reporters […]
serial dilutions of the inhibitors in PBS (10x final concentration), reporter 1 or 2 (110 μM in […]
freshly in a 96-well V-bottom plate. Then, cells were washed with the plate washer. The inhibitor solutions from the V-bottom plate were added to the cells (15 μL/well, 10x final concentration in PBS) using an electronic multichannel pipettes to reach a final volume of 150 μL/well. Cells were incubated for the time of interest (for details of each inhibitors, see Section 4.3 and 4.4) at 37 °C with 5% CO2. Reporter solution 1 or 2 from V-bottom plate was then added (15 μL/well) using an electronic multichannel pipettes to reach a final volume of 165 μL/well and a final concentration of 10 μM 30 min before the next washing process, except for the control wells, where only PBS was added (15 μL/well). The plate was washed again using the plate washer. The solution of Hoechst 33342 and PI from V-bottom plate was added (15 μL/well) using an electronic multichannel pipettes to reach a final volume of 150 μL/well. After […]

[3] abbreviates: GI50, concentration causing 50% cell growth inhibition.
Setting [4] is: 0.5 h, tpre 0.5 h with inhibitor.

From article PMC8179002, “Inhibitors of thiol-mediated uptake” (Chemical Science, 2020) come the findings set out here.

Structures are written as SMILES. Where two headings read alike, the source gives them in different places. Bounds are passed on as bounds.

By IC50 is commonly meant the point on the concentration scale where inhibition reaches its midpoint. For the compound `C=CCS[S+]([O-])CC=C` (stereo not drawn) [compound 25, allicin, reference compound], the GI50 at 1 h in series [1] (setting [3]) was more than 500 µM. For the same compound, the GI50 at 2 h in series [1] (setting [3]) was more than 500 µM. Besides, the “Inhibition of uptake of reporter 1, in words” value in series [2] is recorded as “disappointing”. In addition, the minimal effective concentration in series [2] (1 h, tpre 1 h with inhibitor) is more than 500 µM; in series [2] (2 h, tpre 2 h with inhibitor), more than 500 µM. Also, the IC50 in series [2] (tpre 1 h with inhibitor) and in series [2] (tpre 2 h with inhibitor) was more than 500 µM each time.
As to `O=C(O)CCCCC1CCS[S+]1[O-]` (stereo not drawn) [compound 27], the GI50 was more than 5000 µM in series [1] (tpre 1 h with inhibitor), more than 5000 µM in series [1] (tpre 2 h with inhibitor) and 1800 ± 300 µM in series [1] (tpre 4 h with inhibitor). Moreover, the minimal effective concentration in series [2] (1 h, tpre 1 h with inhibitor) was more than 2000 µM; in series [2] (2 h, tpre 2 h with inhibitor), more than 2000 µM; in series [2] (4 h, tpre 4 h with inhibitor) it was more than 2000 µM. Also, the IC50 in series [2] (tpre 1 h with inhibitor), in series [2] (tpre 2 h with inhibitor) and in series [2] (tpre 4 h with inhibitor) was more than 2000 µM in each case.
`O=C(O)CNC(=O)c1ccc2c(c1)S[S+]([O-])S2` (stereo not drawn) [compound 24]: the GI50 in series [1] (tpre 0.5 h with inhibitor), in series [1] (tpre 1 h with inhibitor) and in series [1] (tpre 2 h with inhibitor) was more than 20 µM each time. Moreover, the IC50 in series [2] (setting [4]), in series [2] (tpre 1 h with inhibitor) and in series [2] (tpre 2 h with inhibitor) was more than 20 µM in each case. The minimal effective concentration is more than 20 µM in series [2] (setting [4]); more than 20 µM in series [2] (1 h, tpre 1 h with inhibitor); more than 20 µM in series [2] (2 h, tpre 2 h with inhibitor).
With `O=C(O)CN1C(=O)C2SSC1C(=O)N2CCOc1ccccc1` (stereo not drawn) [compound 5], the GI50 is 10.3 ± 0.4 µM in series [1] (tpre 0.5 h with inhibitor), 7 ± 0.6 µM in series [1] (tpre 1 h with inhibitor), approximately 4.7 µM in series [1] (tpre 2 h with inhibitor) and approximately 4.1 µM in series [1] (tpre 4 h with inhibitor). The IC50 was 1.1 ± 0.05 µM in series [2] (setting [4]), 0.86 ± 0.06 µM in series [2] (tpre 1 h with inhibitor), 0.98 ± 0.07 µM in series [2] (tpre 2 h with inhibitor) and 1.42 ± 0.26 µM in series [2] (tpre 4 h with inhibitor). The minimal effective concentration in series [2] (setting [4]) is 0.1 µM; in series [2] (1 h, tpre 1 h with inhibitor), 0.1 µM; in series [2] (2 h, tpre 2 h with inhibitor), 0.1 µM; in series [2] (4 h, tpre 4 h with inhibitor) it was 0.1 µM.
Turning to `O=C(CN1C(=O)C2SSC1C(=O)N2CCOc1ccccc1)NCCS(=O)(=O)O` (stereo not drawn) [compound 8], the GI50 in series [1] (tpre 0.5 h with inhibitor), in series [1] (tpre 1 h with inhibitor) and in series [1] (tpre 2 h with inhibitor) was more than 100 µM in each case. Further, the IC50 in series [2] (setting [4]), in series [2] (tpre 1 h with inhibitor) and in series [2] (tpre 2 h with inhibitor) was more than 100 µM each time. Further, the minimal effective concentration in series [2] (setting [4]) turned out to be 10 µM; in series [2] (1 h, tpre 1 h with inhibitor), 2 µM; in series [2] (2 h, tpre 2 h with inhibitor) it was 6 µM.
For the compound `CNC(=O)[C@H](CS[S+]([O-])C[C@H](NC(=O)OC(C)(C)C)C(=O)NC)NC(=O)OC(C)(C)C` (stereo partly drawn) [compound 26], the GI50 in series [1] (tpre 1 h with inhibitor) is more than 1000 µM. The “Inhibition of uptake of reporter 1, in words” value in series [2] is “disappointing”. The minimal effective concentration in series [2] (1 h, tpre 1 h with inhibitor) is more than 1000 µM. Besides, the IC50 in series [2] (tpre 1 h with inhibitor) was more than 1000 µM.
Turning to `O=C(O)C1CSSC1` [compound 28], the GI50 in series [1] (tpre 1 h with inhibitor), in series [1] (tpre 2 h with inhibitor) and in series [1] (tpre 4 h with inhibitor) was more than 2000 µM in each case. Further, the minimal effective concentration in series [2] (1 h, tpre 1 h with inhibitor) was more than 2000 µM; in series [2] (2 h, tpre 2 h with inhibitor), more than 2000 µM; in series [2] (4 h, tpre 4 h with inhibitor), more than 2000 µM. The IC50 in series [2] (tpre 1 h with inhibitor), in series [2] (tpre 2 h with inhibitor) and in series [2] (tpre 4 h with inhibitor) was more than 2000 µM throughout.
Take `CS(=O)(=O)c1nc2ccccc2o1` [compound 11]: the GI50 in series [1] (tpre 0.25 h with inhibitor) was more than 200 µM; in series [1] (tpre 0.5 h with inhibitor), 138 ± 42 µM; in series [1] (tpre 1 h with inhibitor), 97 ± 8 µM. The minimal effective concentration in series [2] (0.25 h, tpre 0.25 h with inhibitor) is 18 µM; in series [2] (setting [4]), 15 µM; in series [2] (1 h, tpre 1 h with inhibitor), 8 µM. Besides, the IC50 in series [2] (setting [4]) amounted to 43.3 ± 3.9 µM; in series [2] (tpre 0.25 h with inhibitor) it was 84 ± 8.2 µM; in series [2] (tpre 1 h with inhibitor) it was 38.9 ± 4.2 µM. The “MIC (concentration that causes ∼15% reduction of reporter uptake), against reporter 1” value in series [2] (pre-incubation time not given (Fig. 2: 1 h pre-incubation, 30 min with reporter; some 15 min)) is “≈ 15 μM”.
For the compound `O=C(O)C1CS[S+]([O-])C1` (stereo not drawn) [compound 23], the GI50 in series [1] (tpre 1 h with inhibitor) is more than 2000 µM; in series [1] (tpre 2 h with inhibitor), 1780 ± 120 µM; in series [1] (tpre 4 h with inhibitor), 1470 ± 70 µM. Moreover, the minimal effective concentration came to 1000 µM in series [2] (1 h, tpre 1 h with inhibitor); 1000 µM in series [2] (2 h, tpre 2 h with inhibitor); 900 µM in series [2] (4 h, tpre 4 h with inhibitor). Also, the IC50 is more than 2000 µM in series [2] (tpre 1 h with inhibitor), more than 2000 µM in series [2] (tpre 2 h with inhibitor) and more than 1000 µM in series [2] (tpre 4 h with inhibitor).
